# Counter-ions that a name gives are not always drawn.
# Molecular target: T1, human histamine H3 receptor (Homo sapiens, UniProt Q9Y5N1)
# T1 construct: One microgram of supercoiled H3 receptor cDNA was added to the cells and mixed; expressed in transfected cells
# Assay: [3H]-N-methylhistamine binding
# Settings: membranes of histamine H3 receptor-expressing SK-N-MC cells, 0.8 nM [3H]-N-methylhistamine, 45 min at 25° C.
# Method: Thus in the present invention receptor binding was determined using the human histamine H3 receptor (See Lovenberg et al Mol. Pharmacol. 1999, 1107). Screening using the human receptor is particularly important for the identification of new therapies for the treatment of human disease. Conventional binding assays for example are determined using rat synaptosomes (Garbarg et al J. Pharmacol. Exp. Ther. 1992, 263, 304), rat cortical membranes (West et al Mol. Pharmacol. 1990, 610), and guinea pig brain (Korte et al Biochem. Biophys. Res. Commun. 1990, 978). Only limited studies have been performed previously using human tissue but these allude to significant differences in the pharmacology of rodent and primate receptors (West et al Eur. J. Pharmacol. 1999, 233).
# Transfection of Cells With Human Histamine Receptor
# A 10 cm tissue culture dish with a confluent monolayer of SK-N-MC cells was split two days prior to transfection. Using sterile technique the media was removed and the cells were detached from the dish by the addition of trypsin. One fifth of the cells were then placed onto a new 10 cm dish. Cells were grown in a 37° C. incubator with 5% CO2 in Minimal Essential Media Eagle with 10% Fetal Bovine Serum. After two days cells were approximately 80% confluent. These were removed from the dish with trypsin and pelleted in a clinical centrifuge. The pellet was then re-suspended in 400 μL complete media and transferred to an electroporation cuvette with a 0.4 cm gap between the electrodes (Bio-Rad #165-2088). One microgram of supercoiled H3 receptor cDNA was added to the cells and mixed. The voltage for the electroporation was set at 0.25 kV; the capacitance was set at 960 μF. After electroporation the cells were diluted into 10 mL complete media and plated onto four 10 cm dishes. Because of the variability in the efficiency of electroporation, four different concentrations of cells were plated. The ratios used were; 1:20, 1:10, 1:5, with the remainder of the cells being added to the fourth dish. The cells were allowed to recover for 24 hours before adding the selection media (complete media with 600 μg/mL G418). After 10 days dishes were analyzed for surviving colonies of cells. Dishes with well isolated colonies were used. Cells from individual colonies were isolated and tested. SK-N-MC cells were used because they give efficient coupling for inhibition of adenylate cyclase. The clones that gave the most robust inhibition of adenylate cyclase in response to histamine were used for further study.
# [^3H]-N-methylhistamine binding
# Cell pellets from histamine H3 receptor-expressing SK-N-MC cells were homogenized in 20 mM TrisHCI/0.5 mM EDTA. Supernatants from a 800 g spin were collected, recentrifuged at 30,000 g for 30 minutes. Pellets were re-homogenized in 50 mM Tris/5 mM EDTA (pH 7.4). Membranes were incubated with 0.8 nM [^3H]-N-methylhistamine plus/minus test compounds for 45 min at 25° C. and harvested by rapid filtration over GF/C glass fiber filters (pretreated with 0.3 % polyethylenimine) followed by four washes with ice cold buffer. Filters were dried, added to 4 mL scintillation cocktail and then counted on a liquid scintillation counter. Non-specific binding was defined with 10 μM histamine. The pKi values were calculated based on a Kd of 800 pM and a ligand concentration ([L]) of 800 pM according to the formula: […]
# T1 sequence (Q9Y5N1 whole entry): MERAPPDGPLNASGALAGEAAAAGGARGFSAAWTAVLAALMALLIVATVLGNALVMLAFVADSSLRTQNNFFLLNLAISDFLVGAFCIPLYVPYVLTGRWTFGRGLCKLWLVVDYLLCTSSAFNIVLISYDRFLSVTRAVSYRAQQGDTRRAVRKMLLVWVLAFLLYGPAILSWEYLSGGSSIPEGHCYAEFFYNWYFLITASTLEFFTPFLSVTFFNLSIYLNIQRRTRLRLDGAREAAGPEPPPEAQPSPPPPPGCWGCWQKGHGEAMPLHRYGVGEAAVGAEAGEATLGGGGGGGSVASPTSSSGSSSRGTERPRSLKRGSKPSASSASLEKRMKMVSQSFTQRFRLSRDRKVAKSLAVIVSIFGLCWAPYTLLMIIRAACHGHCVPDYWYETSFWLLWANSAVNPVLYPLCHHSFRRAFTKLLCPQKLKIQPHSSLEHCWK
row,SMILES,Ki [nM]
1,"c1cc(Oc2ccc(CNC3=NCCN3)cc2)ccc1CNC1=NCCN1 [Example 17, 2-[4-(4-(2Imidazolin)-2-ylaminomethyl-phenoxy-)-benzyl-amino]-2-imidazolidone]",344
2,"Cn1ccnc1SCc1ccc(Oc2ccc(CSc3nccn3C)cc2)cc1 [Example 16, 2-[4-(4-(1Methyl-imidazo)-2-ylthiomethyl-phenoxy-)-benzyl-thio]-1-methyl-imidazole]",792
3,c1cc(Oc2ccc(CN3CCCCC3)cc2)ccc1CN1CCCCC1 [Example 7],0.66
4,"O=Cc1ccc(-c2ccc(CN3CCCC3)cc2)cc1 [Example 27, 4′-Pyrrolidin-1-ylmethyl-biphenyl-4-carbaldehyde]",8.7
5,c1cc(CN2CCCC2)n(Cc2ccc(CN3CCCC3)cc2)c1 [Example 31],3.2
6,CNC(=N)SCc1ccc(Oc2ccc(CSC(=N)NC)cc2)cc1 [Example 13],629
7,c1cc(-c2ccc(CN3CCCC3)o2)ccc1CN1CCCC1 [Example 2],0.41
8,"ON=Cc1ccc(-c2ccc(CN3CCCC3)cc2)cc1 [Example 28, 4′-Pyrrolidin-1-ylmethyl-biphenyl-4-carbaldehyde oxime]",6.5
9,"CN(C)CCCOc1ccc(C(=O)c2ccc(O)cc2)cc1 [Example 33, [4-(3-Dimethylamino-propoxy)-phenyl]-(4-hydroxy-phenyl)-methanone]",129
10,"c1cc(N(CCCN2CCCCC2)c2ccc(CN3CCCC3)cc2)ccc1CN1CCCC1 [Example 24, (3Piperidin-1-yl-propyl)-bis-(4pyrrolidin1-ylmethyl-phenyl)-amine]",3.5
11,c1cn(Cc2ccc(Cc3ccc(Cn4ccnc4)cc3)cc2)cn1 [Example 11],150
12,c1cc(Oc2ccc(CN3CCCC3)cc2)ccc1CN1CCCC1 [Example 6],0.5
13,"c1cc(CN2CCCC2)c(-c2ccc(CN3CCCC3)cc2)s1 [Example 4, 1-[(2-(4-Pyrrolidin-1-ylmethyl-phenyl)-thiophen)-3-ylmethyl]-pyrrolidine]",9
14,"CN(C)CCCSc1ccc(C(=O)c2ccc(SCCCN(C)C)cc2)cc1 [Example 32, Bis-[4-(3-dimethylamino-propylsulfanyl)-phenyl]methanone dihydrochloride]",14
15,"CN(C)CCOc1ccc(C(=O)c2ccc(OCCN(C)C)cc2)cc1 [Example 34, Bis-[4-(2-dimethylamino-ethoxy)-phenyl]-methanone]",126
16,c1cc(Cn2ccc(CN3CCCC3)c2)ccc1CN1CCCC1 [Example 30],24.2
17,c1cc(-c2ccc(CN3CCCC3)s2)sc1CN1CCCC1 [Example 3],1.4
18,"c1cc(CCN2CCCC2)ccc1CCc1ccc(CCN2CCCC2)cc1 [Example 29, 1-(2-{4-[2-(1-Phenethyl-pyrrolidine)-ethyl]-phenyl}-ethyl)-pyrrolidine]",26.6
19,"O=[N+]([O-])c1cc(CN2CCCCC2)ccc1Sc1ccc(N2CCCCC2)cc1 [Example 26, 1-[4-(4-Piperidine-phenylsulfanyl)-3-nitro-benzyl]-piperidine]",756

# The next lines start with the values.
row,Ki [nM],SMILES
1,2.5,O=S(=O)(c1ccc(CN2CCCC2)cc1)c1ccc(CN2CCCC2)cc1 [Example 8]
2,16,"c1ccn(Cc2ccc(COc3ccc(CN4CCCC4)cc3)cc2)c1 [Example 20, 1-[4-(4Pyrrolidin1-ylmethyl-phenoxymethyl)-benzyl]-1H-pyrrole]"
3,9,c1cc(-c2ccc(CN3CCCC3)s2)ccc1CN1CCCC1 [Example 1]
4,453,CN(C)CCN(c1ccc(CN2CCCC2)cc1)c1ccc(CN2CCCC2)cc1 [Example 25]
5,151,c1cn(Cc2ccc(Oc3ccc(Cn4ccnc4)cc3)cc2)cn1 [Example 10]
6,85,C/N=C(\NC)SCc1ccc(Oc2ccc(CS/C(=N/C)NC)cc2)cc1 [Example 12]
7,2,c1cc(CN2CCCC2)ccc1Cc1ccc(CN2CCCC2)cc1 [Example 9]
8,63,"c1cc(-c2ccc(CN3CCCC3)cc2)c(CN2CCCC2)s1 [Example 5, 1-[(3-(4-Pyrrolidin-1-ylmethyl-phenyl)-thiophen)-2-ylmethyl]-pyrrolidine]"
9,15,"c1ccc(CN(c2ccc(CN3CCCC3)cc2)c2ccc(CN3CCCC3)cc2)cc1 [Example 23, Benzyl-bis-(4pyrrolidin1-ylmethyl-phenyl)-amine]"
10,2570,"c1cc(Oc2ccc(CSC3=NCCS3)cc2)ccc1CSC1=NCCS1 [Example 15, 2-[4-(4-(2Thiazolin)-2-ylthiomethyl-phenoxy-)-benzyl-thio]-2-thiazoline]"

# Source: patent US6638967B2, “Thiophene of furan pyrrolidine compounds” (Ortho-McNeil Phamraceutical, Inc., priority 2000, dated 2003)
